Measurements: ChEMBL document CHEMBL1133373, “Chemical and enzymatic modifications of integric acid and HIV-1 integrase inhibitory activity” (Bioorg Med Chem Lett, 2000)
The source made the active and inactive calls. The calls are words filed in the database; no cut-off is given here.

Assays:
[1] = molecular target: Human immunodeficiency virus type 1 integrase (Human immunodeficiency virus 1, UniProt Q7ZJM1); assay: Inhibitory activity against HIV-1 integrase
[2] = molecular target: Human immunodeficiency virus type 1 integrase (Human immunodeficiency virus 1) (UniProt Q7ZJM1); assay: Activity against HIV-1 integrase in range 5-20 uM compared to integric acid.
Chain of Human immunodeficiency virus type 1 integrase (Human immunodeficiency virus 1) (Q7ZJM1 as listed by the source): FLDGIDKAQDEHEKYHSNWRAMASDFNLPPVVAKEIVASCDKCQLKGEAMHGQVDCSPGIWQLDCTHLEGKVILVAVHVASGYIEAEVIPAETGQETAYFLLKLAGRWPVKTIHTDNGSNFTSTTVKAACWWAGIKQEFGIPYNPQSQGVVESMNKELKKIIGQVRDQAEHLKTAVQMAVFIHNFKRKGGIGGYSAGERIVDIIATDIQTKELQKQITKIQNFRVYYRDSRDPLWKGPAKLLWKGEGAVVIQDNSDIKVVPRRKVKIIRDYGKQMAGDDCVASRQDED

[3] = molecular target: Human immunodeficiency virus type 1 integrase (Human immunodeficiency virus 1) (UniProt Q7ZJM1); assay: Compound was tested for strand transfer activity against HIV-1 integrase at 50 uM; weak inhibition

Chain of Human immunodeficiency virus type 1 integrase (Q7ZJM1 whole entry): as the sequence (Q7ZJM1 as listed by the source) above

Structure (SMILES)	IC50 [1]	Activity [2]	Activity [3]
C=C(C=O)[C@@H]1C[C@@]2(C)C(=CC1=O)[C@H](OC(=O)/C(C)=C/C(C)CCCC)CC[C@@H]2C(=O)O/C(=N\C1CCCCC1)NC1CCCCC1 (stereo not given in full)	88 µM		
CCCCC(C)/C=C(\C)C(=O)O[C@@H]1CC[C@H](C(=O)O)[C@@]2(C)CC3C(C)C(O)OC3(O)C=C12 (stereo not given in full)	40 µM		
CCCCC(C)/C=C(\C)C(=O)O[C@@H]1CC[C@H](C(=O)O)[C@@]2(C)C[C@H]3[C@H](C)CO[C@]3(O)C[C@H]12 (stereo not given in full)	100 µM		
C=C(CO)[C@@H]1C[C@@]2(C)C(=C[C@H]1O)[C@H](OC(=O)/C(C)=C/C(C)CCCC)CC[C@@H]2C(=O)O (stereo not given in full)	73 µM		
C=C/C(C)=C1\C[C@@]2(C)C(=CC1=O)[C@H](OC(=O)/C(C)=C/C(C)CCCC)CC[C@@H]2C(=O)O (stereo not given in full)	75 µM		
CC1=C2C[C@@]3(C)C(=CCC[C@@H]3C(=O)O)C=C2OC1=O	> 100 µM		
C=C(C=O)[C@@H]1C[C@@]2(C)C(=CC1=O)[C@H](OC(=O)/C(C)=C/C(C)CCCC)CC[C@@H]2C(=O)OP(=O)(OCC)OCC (stereo not given in full)	81 µM		
CCCCC(C)/C=C(\C)C(=O)O[C@@H]1CC[C@H](C(=O)O)[C@@]2(C)C[C@H]3[C@@H](C)CO[C@]3(O)C[C@H]12 (stereo not given in full)	45 µM		

Continued, values first:

IC50 [1]	Activity [2]	Activity [3]	Structure (SMILES)
11 µM	Active	weak inhibition	CCCCC(C)/C=C(\C)C(=O)O[C@@H]1CC[C@H](C(=O)O)[C@@]2(C)C[C@@H]([C@H](C)C=O)C(=O)C=C12 (stereo not given in full)
40 µM			CCCCC(C)/C=C(\C)C(=O)O[C@@H]1CC[C@H](C(=O)O)[C@@]2(C)C[C@@H](C(C)C(O)O)C(=O)C=C12 (stereo not given in full)
3 µM	Active		C=C(C=O)[C@@H]1C[C@@]2(C)C(=CC1=O)[C@H](OC(=O)/C(C)=C/C(C)CCCC)CC[C@@H]2C(=O)O (stereo not given in full)
12 µM	Active		CCCCC(C)/C=C(\C)C(=O)O (stereo not given)
24 µM	Active		C=C(C=O)[C@@H]1C[C@@]2(C)C(=CC1=O)[C@H](OC(=O)/C(C)=C/C(C)CCCC)CC[C@@H]2C(=O)N1CCN(C(=O)[C@H]2CC[C@@H](OC(=O)/C(C)=C/C(C)CCCC)C3=CC(=O)[C@H](C(=C)C=O)C[C@@]32C)CC1 (stereo not given in full)
5 µM	Active		C=C(C=O)[C@@H]1C[C@@]2(C)C(=CC1=O)[C@H](OC(=O)/C(C)=C/C(C)CCCC)CC[C@@H]2C(=O)ON[C@H](C(=O)OC)c1ccccc1 (stereo not given in full)
5 µM	Active		C=C(C=O)[C@@H]1C[C@@]2(C)C(=CC1=O)[C@H](OC(=O)/C(C)=C/C(C)CCCC)CC[C@@H]2C(=O)ON[C@@H](C(=O)OC)c1ccccc1 (stereo not given in full)
3 µM	Active		C=C(C=O)[C@@H]1C[C@@]2(C)C(=CC1=O)[C@H](OC(=O)/C(C)=C/C(C)CCCC)CC[C@@H]2C(=O)N[C@@H](CC(C)C)C(=O)OC (stereo not given in full)
10 µM	Active		C=C(C=O)[C@@H]1C[C@@]2(C)C(=CC1=O)[C@H](OC(=O)/C(C)=C/C(C)CCCC)CC[C@@H]2C(=O)NCCNC(=O)[C@H]1CC[C@@H](OC(=O)/C(C)=C/C(C)CCCC)C2=CC(=O)[C@H](C(=C)C=O)C[C@@]21C (stereo not given in full)
11 µM	Active	weak inhibition	CCCCC(C)/C=C(\C)C(=O)O[C@@H]1CC[C@H](C(=O)O)[C@@]2(C)CC([C@@H](C)C=O)C(=O)C=C12 (stereo not given in full)
30 µM			C=CC(=C)[C@@H]1C[C@@]2(C)C(=CC1=O)[C@H](OC(=O)/C(C)=C/C(C)CCCC)CC[C@@H]2C(=O)O (stereo not given in full)
